The source of these data is patent US6087120A, “Measurement of complement activation by biomaterials by means of complement convertase cleavage of peptide substrates” (HaemoProbe B.V., priority 1996, dated 2000).

Holding throughout (assay type): biochemical, Human
The subject of assay [1] is C5-convertase. The assay is described as follows: Complement convertase bound to biomaterial surface: cleavage of BOC-Leu-Gly-Arg-pNA, OD 405 nm. Particulars: washed PDMS after incubation in def PPP; 60 hours; FIG. 3a. The procedure:
Human blood was collected from a healthy volunteer by vena puncture. […] Then blood was centrifuged (1100 xg) to obtain separation between plasma and blood cells. In our experiments we used this citrated human plasma after treatment with reptilase to coagulate fibrinogen. This plasma, deficient of fibrinogen (def PPP), contains the other coagulation components and can be mixed with Ca^++ containing buffer to optimize complement activation. This def PPP was stored in aliquots at -80° C. We diluted this in 50 mM TRIS buffer+33 mM CaCl2 (pH 7.4) to a percentage of 20% prior to use. The biomaterial PDMS (polydimethyl-siloxane, silicon rubber) was cut into 1 cm^2 pieces. For cleaning the biomaterial it was incubated at first in 70% ethanol, and then rinsed in 0.9% NaCl. During the experiment the pieces of biomaterials were incubated in 500 μl diluted def PPP during 0, 10, 30, or 60 min at room temperature. After incubation, the biomaterials were rinsed 3 times with saline. Then the biomaterials were incubated in BOC-Leu-Gly-Arg-pNA, diluted in TRIS buffer +33 mM CaCl2, during 60 hours at room temperature in the dark. Simultaneously, also 100 μl def PPP, in which the biomaterials had been incubated, were mixed with 100 μl of H-Leu-Gly-Arg-pNA or Bz-Leu-Gly-Arg-pNA, diluted in TRIS buffer, supplemented with 33 mM CaCl2.

Assay [2] relates to C5-convertase. The assay is described as follows: Complement convertase released in incubated def PPP: cleavage of H- or Bz-Leu-Gly-Arg-pNA, OD 405 nm. Particulars: for substrate cleavage in the incubated plasma solution: def PPP after incubation with PDMS, 60 hours, FIG. 3a; for specificity of the substrate for complement activation: judged from the effect of EDTA and enzyme inhibitors on cleavage, FIG. 6. An excerpt:
Human blood was collected from a healthy volunteer by vena puncture. Blood was mixed immediately with sodium citrate (0.316%, final concentration) to prevent clotting. Then blood was centrifuged (1100 xg) to obtain separation between plasma and blood cells. In our experiments we used this citrated human plasma after treatment with reptilase to coagulate fibrinogen. This plasma, deficient of fibrinogen (def PPP), contains the other coagulation components and can be mixed with Ca^++ containing buffer to optimize complement activation. This def PPP was stored in aliquots at -80° C. We diluted this in 50 mM TRIS buffer+33 mM CaCl2 (pH 7.4) to a percentage of 20% prior to use. The biomaterial PDMS (polydimethyl-siloxane, silicon rubber) was cut into 1 cm^2 pieces. For cleaning the biomaterial it was incubated at first in 70% ethanol, and then rinsed in 0.9% NaCl. During the experiment the pieces of biomaterials were incubated in 500 μl diluted def PPP during 0, 10, 30, or 60 min at room temperature. After incubation, the biomaterials were rinsed 3 times with saline. Then the biomaterials were incubated in BOC-Leu-Gly-Arg-pNA, diluted in TRIS buffer +33 mM CaCl2, during 60 hours at room temperature in the dark. Simultaneously, also 100 μl def PPP, in which the biomaterials had been incubated, were mixed with 100 μl of H-Leu-Gly-Arg-pNA or Bz-Leu-Gly-Arg-pNA, diluted in TRIS buffer, supplemented with 33 mM CaCl2. After these 60 hours the OD was measured at 405 nm in a spectrophotometer (microplate reader 3550 UV; Biorad, Richmond, Calif., USA).
In a second experiment the incubated def PPP was incubated in the presence of Ca^++ as described above and 100 μl def PPP was collected after 30 minutes. Then this collected def PPP was incubated with H-Leu-Gly-Arg-pNA and Bz-Leu-Gly-Arg-pNA in the presence of Ca^++ or in the absence of Ca^++ with EDTA.

Another assay has as its system complement convertase. The assay is described as follows: Effect of enzyme inhibitors or EDTA present during incubation of PDMS in def PPP on convertase formation. As to conditions: for inhibition of substrate conversion by inhibitor added prior to incubation: PDMS in def PPP aliquots, substrate H-Leu-Gly-Arg-pNA, FIG. 6. The procedure: To verify the specificity of complement convertase activity, PDMS was incubated with diluted def PPP supplemented with Ca^++ (allowing convertases to be formed) or with EDTA (preventing convertase formation).
A number of enzyme inhibitors was used to further specify the complement convertase test of the incubated def PPP with substrate H-Leu-Gly-Arg-pNA.During incubation with PDMS in different aliquots a specific thrombin inhibitor (I2581, Kabi), C1 esterase inhibitor (Sigma), the plasmin/kallikrein/chymotrypsin inhibitor aprotinin (Bayer) and EDTA was used.

Entries after “also recorded” stand apart in the source; their conditions may differ. Peptide text beside a SMILES is read from it. * marks the point of attachment. pNA = O=[N+]([O-])c1ccc(N*)cc1; Boc = CC(C)(C)OC(=O)*; Bz = O=C(c1ccccc1)*

Take `CC(C)C[C@H](NC(=O)OC(C)(C)C)C(=O)NCC(=O)N[C@@H](CCCNC(=N)N)C(=O)Nc1ccc([N+](=O)[O-])cc1` [BOC-Leu-Gly-Arg-pNA] (Boc-Leu-Gly-Arg-pNA): the “substrate cleavage on the PDMS surface” value in the assay on C5-convertase [1] is on record as “most effective on the PDMS surface; also recorded: colour formation”.

Turning to `CC(C)C[C@H](NC(=O)c1ccccc1)C(=O)NCC(=O)N[C@@H](CCCNC(=N)N)C(=O)Nc1ccc([N+](=O)[O-])cc1` [Bz-Leu-Gly-Arg-pNA] (Bz-Leu-Gly-Arg-pNA), the “substrate cleavage in the incubated plasma solution” value in the assay with C5-convertase [2] was “effective in the plasma solution; also recorded: colour formation”. In addition, in the assay with C5-convertase [2] (FIG. 4a), the “specificity of the substrate for complement activation” value is recorded as “not reduced by EDTA; also recorded: considered non-specific”.

On to `O=C(O)CN(CCN(CC(=O)O)CC(=O)O)CC(=O)O` [EDTA, ethylenediamine tetra-acetic acid, reference compound], for which, in the assay on complement convertase, the “inhibition of substrate conversion by inhibitor added prior to incubation” value was “almost completely prevented substrate conversion; also recorded: best inhibitor”. For the same compound, the “convertase formation with EDTA instead of Ca++ during incubation” value in the assay on complement convertase (PDMS in diluted def PPP supplemented with Ca++ or EDTA) is “completely prevented convertase formation”. In addition, the “effect of EDTA during substrate cleavage (second incubation) on formed convertases” value in the assay with C5-convertase [2] (def PPP collected after 30 min with PDMS, EDTA added with the substrate, FIG. 4a) was “did not prevent substrate cleavage by formed complexes; also recorded: formed convertases remained active in EDTA”.

`CC(C)C[C@H](N)C(=O)NCC(=O)N[C@@H](CCCNC(=N)N)C(=O)Nc1ccc([N+](=O)[O-])cc1` [H-Leu-Gly-Arg-pNA] (H-Leu-Gly-Arg-pNA): the “substrate cleavage in the incubated plasma solution” value in the assay with C5-convertase [2] is on record as “effective in the plasma solution; also recorded: colour formation”. Besides, the “specificity of the substrate for complement activation” value in the assay with C5-convertase [2] (FIG. 4a) is recorded as “complement dependent”.

As for aprotinin, the “inhibition of substrate conversion by inhibitor added prior to incubation” value with complement convertase is “did not inhibit substrate conversion; also recorded: then aprotinin”.
